Test results taken from PubChem BioAssay AID1259407 (Chemical Carcinogenesis Research Information System (CCRIS), 2018).
Active and inactive are the calls of the source. The rule behind the calls is not given here.

Tested on: CCRIS mutagenicity, Ames/micronucleus/aberration tests
Test: CCRIS mutagenicity studies

With `CC(=O)Nc1ccc(O)cc1` the mutagenic call (End Point: IN VITRO MICRONUCLEUS, Test System: CHL/IU CELLS, Metabolic Activation: NONE) was “active; positive”, the mutagenic call (End Point: IN VITRO MICRONUCLEUS, Test System: RAT KIDNEY FIBROBLAST NRK-49F, Metabolic Activation: NONE) was “active; positive” and the mutagenic call (Test System: AMES SALMONELLA TYPHIMURIUM, Strain/Indicator: TA97, Metabolic Activation: NONE, Method: STANDARD PLATE) was “inactive; negative”. For the same compound, the mutagenic call (Test System: AMES SALMONELLA TYPHIMURIUM, Strain/Indicator: TA97, Metabolic Activation: RAT, LIVER, S-9, AROCLOR 1254, Method: STANDARD PLATE) was “inactive; negative”, the mutagenic call (Test System: AMES SALMONELLA TYPHIMURIUM, Strain/Indicator: TA98, Metabolic Activation: GUINEA PIG, LIVER, S-9, PCB, Method: PREINCUBATION) was “inactive; negative” and the mutagenic call (Test System: AMES SALMONELLA TYPHIMURIUM, Strain/Indicator: TA98, Metabolic Activation: HAMSTER, LIVER, S-9, AROCLOR 1254 (10%), Method: PREINCUBATION) was “inactive; negative”. The mutagenic call (Test System: AMES SALMONELLA TYPHIMURIUM, Strain/Indicator: TA98, Metabolic Activation: HAMSTER, LIVER, S-9, AROCLOR 1254, Method: STANDARD PLATE) was “inactive; negative”, the mutagenic call (Test System: AMES SALMONELLA TYPHIMURIUM, Strain/Indicator: TA98, Metabolic Activation: HAMSTER, LIVER, S-9, PCB, Method: PREINCUBATION) was “inactive; negative” and the mutagenic call (Test System: AMES SALMONELLA TYPHIMURIUM, Strain/Indicator: TA98, Metabolic Activation: MOUSE, LIVER, S-9, AROCLOR 1254, Method: STANDARD PLATE) was “inactive; negative”. The mutagenic call (Test System: AMES SALMONELLA TYPHIMURIUM, Strain/Indicator: TA98, Metabolic Activation: MOUSE, LIVER, S-9, PCB, Method: PREINCUBATION) was “inactive; negative”, the mutagenic call (Test System: AMES SALMONELLA TYPHIMURIUM, Strain/Indicator: TA98, Metabolic Activation: NONE, Method: PREINCUBATION) was “inactive; negative” and the mutagenic call (Test System: AMES SALMONELLA TYPHIMURIUM, Strain/Indicator: TA98, Metabolic Activation: NONE, Method: STANDARD PLATE) was “inactive; negative”. The mutagenic call (Test System: AMES SALMONELLA TYPHIMURIUM, Strain/Indicator: TA98, Metabolic Activation: RAT, LIVER, S-9, AROCLOR 1254 (10%), Method: PREINCUBATION) was “inactive; negative”, the mutagenic call (Test System: AMES SALMONELLA TYPHIMURIUM, Strain/Indicator: TA98, Metabolic Activation: RAT, LIVER, S-9, AROCLOR 1254, Method: STANDARD PLATE) was “inactive; negative” and the mutagenic call (Test System: AMES SALMONELLA TYPHIMURIUM, Strain/Indicator: TA98, Metabolic Activation: RAT, LIVER, S-9, ETHANOL, Method: STANDARD PLATE) was “inactive; negative”. The mutagenic call (Test System: AMES SALMONELLA TYPHIMURIUM, Strain/Indicator: TA98, Metabolic Activation: RAT, LIVER, S-9, PCB, Method: PREINCUBATION) was “inactive; negative”, the mutagenic call (Test System: AMES SALMONELLA TYPHIMURIUM, Strain/Indicator: TA98, Metabolic Activation: RAT, LIVER, S-9, PYRAZOLE, Method: STANDARD PLATE) was “inactive; negative” and the mutagenic call (Test System: AMES SALMONELLA TYPHIMURIUM, Strain/Indicator: TA100, Metabolic Activation: GUINEA PIG, LIVER, S-9, PCB, Method: PREINCUBATION) was “inactive; negative”. The mutagenic call (Test System: AMES SALMONELLA TYPHIMURIUM, Strain/Indicator: TA100, Metabolic Activation: HAMSTER, LIVER, S-9, AROCLOR 1254 (10%), Method: PREINCUBATION) was “inactive; negative”, the mutagenic call (Test System: AMES SALMONELLA TYPHIMURIUM, Strain/Indicator: TA100, Metabolic Activation: HAMSTER, LIVER, S-9, AROCLOR 1254, Method: STANDARD PLATE) was “inactive; negative” and the mutagenic call (Test System: AMES SALMONELLA TYPHIMURIUM, Strain/Indicator: TA100, Metabolic Activation: HAMSTER, LIVER, S-9, PCB, Method: PREINCUBATION) was “active; positive”. The mutagenic call (Test System: AMES SALMONELLA TYPHIMURIUM, Strain/Indicator: TA100, Metabolic Activation: MOUSE, LIVER, S-9, AROCLOR 1254, Method: STANDARD PLATE) was “inactive; negative”, the mutagenic call (Test System: AMES SALMONELLA TYPHIMURIUM, Strain/Indicator: TA100, Metabolic Activation: MOUSE, LIVER, S-9, PCB, Method: PREINCUBATION) was “inactive; negative” and the mutagenic call (Test System: AMES SALMONELLA TYPHIMURIUM, Strain/Indicator: TA100, Metabolic Activation: NONE, Method: PREINCUBATION) was “inactive; negative”. For the same compound, the mutagenic call (Test System: AMES SALMONELLA TYPHIMURIUM, Strain/Indicator: TA100, Metabolic Activation: NONE, Method: STANDARD PLATE) was “inactive; negative”, the mutagenic call (Test System: AMES SALMONELLA TYPHIMURIUM, Strain/Indicator: TA100, Metabolic Activation: RAT, LIVER, S-9, AROCLOR 1254 (10%), Method: PREINCUBATION) was “inactive; negative” and the mutagenic call (Test System: AMES SALMONELLA TYPHIMURIUM, Strain/Indicator: TA100, Metabolic Activation: RAT, LIVER, S-9, AROCLOR 1254, Method: STANDARD PLATE) was “inactive; negative”. For the same compound, the mutagenic call (Test System: AMES SALMONELLA TYPHIMURIUM, Strain/Indicator: TA100, Metabolic Activation: RAT, LIVER, S-9, ETHANOL, Method: STANDARD PLATE) was “inactive; negative”, the mutagenic call (Test System: AMES SALMONELLA TYPHIMURIUM, Strain/Indicator: TA100, Metabolic Activation: RAT, LIVER, S-9, PCB, Method: PREINCUBATION) was “inactive; negative” and the mutagenic call (Test System: AMES SALMONELLA TYPHIMURIUM, Strain/Indicator: TA100, Metabolic Activation: RAT, LIVER, S-9, PYRAZOLE, Method: STANDARD PLATE) was “inactive; negative”. The mutagenic call (Test System: AMES SALMONELLA TYPHIMURIUM, Strain/Indicator: TA102, Metabolic Activation: RAT, LIVER, S-9, ETHANOL, Method: STANDARD PLATE) was “inactive; negative”, the mutagenic call (Test System: AMES SALMONELLA TYPHIMURIUM, Strain/Indicator: TA102, Metabolic Activation: RAT, LIVER, S-9, PYRAZOLE, Method: STANDARD PLATE) was “inactive; negative” and the mutagenic call (Test System: AMES SALMONELLA TYPHIMURIUM, Strain/Indicator: TA1535, Metabolic Activation: HAMSTER, LIVER, S-9, AROCLOR 1254 (10%), Method: PREINCUBATION) was “inactive; negative”. For the same compound, the mutagenic call (Test System: AMES SALMONELLA TYPHIMURIUM, Strain/Indicator: TA1535, Metabolic Activation: HAMSTER, LIVER, S-9, AROCLOR 1254, Method: STANDARD PLATE) was “inactive; negative”, the mutagenic call (Test System: AMES SALMONELLA TYPHIMURIUM, Strain/Indicator: TA1535, Metabolic Activation: MOUSE, LIVER, S-9, AROCLOR 1254, Method: STANDARD PLATE) was “inactive; negative” and the mutagenic call (Test System: AMES SALMONELLA TYPHIMURIUM, Strain/Indicator: TA1535, Metabolic Activation: NONE, Method: PREINCUBATION) was “inactive; negative”. The mutagenic call (Test System: AMES SALMONELLA TYPHIMURIUM, Strain/Indicator: TA1535, Metabolic Activation: NONE, Method: STANDARD PLATE) was “inactive; negative”, the mutagenic call (Test System: AMES SALMONELLA TYPHIMURIUM, Strain/Indicator: TA1535, Metabolic Activation: RAT, LIVER, S-9, AROCLOR 1254 (10%), Method: PREINCUBATION) was “inactive; negative” and the mutagenic call (Test System: AMES SALMONELLA TYPHIMURIUM, Strain/Indicator: TA1535, Metabolic Activation: RAT, LIVER, S-9, AROCLOR 1254, Method: STANDARD PLATE) was “inactive; negative”. The mutagenic call (Test System: AMES SALMONELLA TYPHIMURIUM, Strain/Indicator: TA1535, Metabolic Activation: RAT, LIVER, S-9, PYRAZOLE, Method: STANDARD PLATE) was “inactive; negative”, the mutagenic call (Test System: AMES SALMONELLA TYPHIMURIUM, Strain/Indicator: TA1537, Metabolic Activation: HAMSTER, LIVER, S-9, AROCLOR 1254 (10%), Method: PREINCUBATION) was “inactive; negative” and the mutagenic call (Test System: AMES SALMONELLA TYPHIMURIUM, Strain/Indicator: TA1537, Metabolic Activation: HAMSTER, LIVER, S-9, AROCLOR 1254, Method: STANDARD PLATE) was “inactive; negative”. The mutagenic call (Test System: AMES SALMONELLA TYPHIMURIUM, Strain/Indicator: TA1537, Metabolic Activation: MOUSE, LIVER, S-9, AROCLOR 1254, Method: STANDARD PLATE) was “inactive; negative”, the mutagenic call (Test System: AMES SALMONELLA TYPHIMURIUM, Strain/Indicator: TA1537, Metabolic Activation: NONE, Method: PREINCUBATION) was “inactive; negative” and the mutagenic call (Test System: AMES SALMONELLA TYPHIMURIUM, Strain/Indicator: TA1537, Metabolic Activation: NONE, Method: STANDARD PLATE) was “inactive; negative”. For the same compound, the mutagenic call (Test System: AMES SALMONELLA TYPHIMURIUM, Strain/Indicator: TA1537, Metabolic Activation: RAT, LIVER, S-9, AROCLOR 1254 (10%), Method: PREINCUBATION) was “inactive; negative”, the mutagenic call (Test System: AMES SALMONELLA TYPHIMURIUM, Strain/Indicator: TA1537, Metabolic Activation: RAT, LIVER, S-9, AROCLOR 1254, Method: STANDARD PLATE) was “inactive; negative” and the mutagenic call (Test System: AMES SALMONELLA TYPHIMURIUM, Strain/Indicator: TA1537, Metabolic Activation: RAT, LIVER, S-9, PYRAZOLE, Method: STANDARD PLATE) was “inactive; negative”. For the same compound, the mutagenic call (Test System: AMES SALMONELLA TYPHIMURIUM, Strain/Indicator: TA1538, Metabolic Activation: HAMSTER, LIVER, S-9, AROCLOR 1254, Method: STANDARD PLATE) was “inactive; negative”, the mutagenic call (Test System: AMES SALMONELLA TYPHIMURIUM, Strain/Indicator: TA1538, Metabolic Activation: MOUSE, LIVER, S-9, AROCLOR 1254, Method: STANDARD PLATE) was “inactive; negative” and the mutagenic call (Test System: AMES SALMONELLA TYPHIMURIUM, Strain/Indicator: TA1538, Metabolic Activation: NONE, Method: STANDARD PLATE) was “inactive; negative”. For the same compound, the mutagenic call (Test System: AMES SALMONELLA TYPHIMURIUM, Strain/Indicator: TA1538, Metabolic Activation: RAT, LIVER, S-9, AROCLOR 1254, Method: STANDARD PLATE) was “inactive; negative” and the mutagenic call (Test System: TEST SALMONELLA TYPHIMURIUM, Strain/Indicator: TA1537, Metabolic Activation: RAT, LIVER, S-9, AROCLOR 1254, Method: STANDARD PLATE) was “inactive; negative”.
